According to patent US20260107941A1:
Converted amounts (≈) assume the structure as drawn. “And” between values parts separate entries of the source, which are not always exact repeats. Equal entries are not always repeated.

Key:
pear fire blight = assay: Field test, control effect on pear fire blight in fragrant pear orchards; settings: 3 L sprayed per pear tree, 3 times at 7 d/time
Rhizoctonia solani [1] = assay: Mycelial growth rate method, toxicity to Rhizoctonia solani; assay type: cell-based; settings: R. solani, mycelial growth on drug-containing PDA plate, 28° C., 3 d to 7 d
Description: (§1) A PDA solid medium was heated, melted, shaken, and cooled to about 45° C.; a medicinal solution (filtered with a 0.22 μm sterile filter) and the PDA solid medium were mixed, cooled to obtain a drug-containing medium plate with a certain concentration; a phytopathogen cake was placed in the center of the plate, and cultured at 28° C. for 3 d to 7 d; when the hyphae of the phytopathogen in the control group were about to fill the dish, a colony diameter was measured using a cross method, and the mycelial growth inhibition rate and toxicity were calculated. [formula]

Fusarium oxysporum = assay: Mycelial growth rate method, toxicity to Fusarium oxysporum; assay type: cell-based; settings: F. oxysporum, mycelial growth on drug-containing PDA plate, 28° C., 3 d to 7 d
Description: as §1

Alternaria alternata = assay: Mycelial growth rate method, toxicity to Alternaria alternata; assay type: cell-based; settings: A. alternata, mycelial growth on drug-containing PDA plate, 28° C., 3 d to 7 d
Description: as §1

Rhizoctonia solani [2] = assay: Pot method, control effect on Rhizoctonia solani in cotton seedlings; assay type: in vivo; settings: 50 mL applied on 1 d, 3 d, 5 d, 7 d, after 10 d
Description: A Rhizoctonia solani suspension (10^7 CFU/mL) was added to a matrix at a ratio of 20:1 (w/w), mixed well, germinated cotton seeds were sown into the matrix, and then 50 mL of the medicinal solution was applied on 1 d, 3 d, 5 d, and 7 d separately. After culturing for 10 d, the incidence rate was investigated and the control effect was calculated.

Xanthomonas oryzae = assay: microbe, parasite or virus in culture; assay type: cell-based
[3] = system: Pseudomonas syringae pv. lachrymans; assay: microbe, parasite or virus in culture; assay type: cell-based; settings: P. syringae pv. lachrymans
[4] = system: Colletotrichum orbiculare; assay: Mycelial growth rate method, toxicity to Colletotrichum orbiculare; assay type: cell-based; settings: C. orbiculare, mycelial growth on drug-containing PDA plate, 28° C., 3 d to 7 d
Description: as §1

Cladosporium fulvum = assay: Mycelial growth rate method, toxicity to Cladosporium fulvum; assay type: cell-based; settings: Fulvia fulva; C. fulvum; mycelial growth on drug-containing PDA plate, 28° C., 3 d to 7 d
Description: as §1

Acidovorax citrulli = assay: Turbidity method, toxicity to Acidovorax citrulli; assay type: cell-based; settings: Paracidovorax citrulli; A. citrulli; turbidity in NB medium, shaking culture 30° C., 2 d to 3 d
Erwinia amylovory = assay: Turbidity method, toxicity to Erwinia amylovory; assay type: cell-based; settings: E. amylovory, turbidity in NB medium, shaking culture 30° C., 2 d to 3 d

CCN(CC)c1ccc(C=O)c(O)c1
Control effect (%) 7 d after last dose (pear fire blight; 200 mg/L): 40.85c % | Control effect (%) 14 d after last dose (pear fire blight; 200 mg/L): 35.14c % | Control effect (%) 7 d after last dose (pear fire blight; 300 mg/L): 50.37% and 50.37b % | Control effect (%) 14 d after last dose (pear fire blight; 300 mg/L): 44.71% and 44.71b % | Control effect (%) 7 d after last dose (pear fire blight; 400 mg/L): 58.13% and 58.13a % | Control effect (%) 14 d after last dose (pear fire blight; 400 mg/L): 50.81% and 50.81a % | EC50 (Rhizoctonia solani [1]): 14.5 µg/mL (≈ 75 µM) | EC50 (Fusarium oxysporum): 40.8 µg/mL (≈ 211 µM) | EC50 (Alternaria alternata): 200 µg/mL (≈ 1040 µM) | Control effect (%) (Rhizoctonia solani [2]; 50 mg/L): 60.66% and 60.66c % | Incidence (%) (Rhizoctonia solani [2]; 50 mg/L): 20.00% | Control effect (%) (Rhizoctonia solani [2]; 100 mg/L): 77.05% and 77.05b % | Incidence (%) (Rhizoctonia solani [2]; 100 mg/L): 11.67% | Control effect (%) (Rhizoctonia solani [2]; 150 mg/L): 86.89% and 86.89a % | Incidence (%) (Rhizoctonia solani [2]; 150 mg/L): 6.67% | EC50 (Xanthomonas oryzae): 136 µg/mL (≈ 706 µM) | EC50 [3]: 114 µg/mL (≈ 592 µM) | EC50 [4]: 93.8 µg/mL (≈ 485 µM) | EC50 (Cladosporium fulvum): 113 µg/mL (≈ 583 µM) | EC50 (Acidovorax citrulli): 108 µg/mL (≈ 561 µM) | EC50 (Erwinia amylovory): 92.1 µg/mL (≈ 477 µM)

COC(=O)Nc1nc2ccccc2[nH]1 [carbendazim, reference compound]
Control effect (%) (Rhizoctonia solani [2]; 100 mg/L): 49.18d % | Incidence (%) (Rhizoctonia solani [2]; 100 mg/L): 25.83%

zhongshengmycin [reference compound]
Control effect (%) 7 d after last dose (pear fire blight; 50 mg/L): 53.06ab % | Control effect (%) 14 d after last dose (pear fire blight; 50 mg/L): 47.36b %
